Measured values: patent publication EP3613735A1, “NOVEL SIRT 1 ACTIVATOR AND MEDICINAL USE THEREOF” (Pusan National University Industry - University Cooperation …, priority 2017, dated 2018)

How the values were obtained:
CPT1 and ACOX1 = assay: Liver mRNA expression of fat oxidation related genes, quantitative real-time PCR; format: in vivo, mouse; settings: db/db mice, oral 5 mg/kg daily for 4 weeks, treated vs db/db group
Protocol: (§1) Since obesity and insulin resistance are representative diseases directly related to the development of non-alcoholic fatty liver, the improvement effect of Compound 32u on fatty liver was analyzed. Compound 32u was orally administered to db/db mice (9 weeks old) at a concentration of 5 mg/kg daily for 4 weeks. First, the accumulation of fat in the liver, the most representative phenotype, was measured. Briefly, about 50 mg of liver was quantified in cold phosphate buffered saline (PBS) or 0.9% sodium chloride (NaCl) and crushed, followed by treating with mixed solvent of chloroform and methanol (MeOH) in a volume ratio of 2:1 and reacted for 2 hours. […] Thereafter, the amount of neutral fat was measured by absorbance using a neutral fat measurement kit (Stanbio laboratory, TX USA). In order to confirm the corresponding mechanism, mRNA expression of genes related to fat synthesis and degradation was analyzed. […] For the synthesized cDNA, a quantative real-time polymerase chain reaction (quantative real-time PCR) was performed to target the desired gene as a primer and quantify it in real time. Since obesity and insulin resistance are representative diseases directly related to the development of non-alcoholic fatty liver, the improvement effect of Compound 70c on fatty liver was analyzed. […] First, the accumulation of fat in the liver, the most representative phenotype, was measured. […]

[1] = system: FASN, ACC, SREBP-1a, SREBP-1c and SREBP-2; assay: Liver mRNA expression of fat synthesis genes, quantitative real-time PCR; format: in vivo, mouse; settings: db/db mice, oral 5 mg/kg daily for 4 weeks
Protocol: as §1

db/db mice [2] = assay: Glucose tolerance test and fasting blood glucose in obese animal model; format: in vivo, mouse; settings: for fasting blood glucose: oral 5 mg/kg daily, compared to db/db mouse group; for glucose tolerance (blood glucose concentration): three weeks after oral administration of 5 mg/kg daily, glucose 2 g/kg intraperitoneally after 12 hours fasting
Protocol: The metabolic disease control ability of Compound 32u was analyzed using db/db mice lacking an appetite-regulating hormone leptin receptor as an obese animal model. Compound 32u was orally administered to db/db mice (9 weeks old) at a concentration of 5 mg/kg daily for 4 weeks. Three weeks after oral administration of Compound 32u, a glucose tolerance test was performed. Mice were fasted for 12 hours or more, and glucose (2 g/kg) was injected intraperitoneally, and blood from the tail of the mouse was measured for blood glucose at each time using a glucometer ([…]). The metabolic disease control ability of Compound 70c was analyzed using db/db mice lacking an appetite-regulating hormone leptin receptor as an obese animal model. Compound 70c was orally administered to db/db mice (9 weeks old) at a concentration of 5 mg/kg daily for 4 weeks. Three weeks after oral administration of Compound 70c, a glucose tolerance test was performed. Mice were fasted for 12 hours or more, and glucose (2 g/kg) was injected intraperitoneally, and blood from the tail of the mouse was measured for blood glucose at each time using a glucometer ([…]).

db/db mice [3] = assay: Neutral fat in the liver (fatty liver) in obese animal model; format: in vivo, mouse; settings: oral 5 mg/kg daily for 4 weeks
Protocol: Since obesity and insulin resistance are representative diseases directly related to the development of non-alcoholic fatty liver, the improvement effect of Compound 32u on fatty liver was analyzed. Compound 32u was orally administered to db/db mice (9 weeks old) at a concentration of 5 mg/kg daily for 4 weeks. First, the accumulation of fat in the liver, the most representative phenotype, was measured. Briefly, about 50 mg of liver was quantified in cold phosphate buffered saline (PBS) or 0.9% sodium chloride (NaCl) and crushed, followed by treating with mixed solvent of chloroform and methanol (MeOH) in a volume ratio of 2:1 and reacted for 2 hours. […] Thereafter, the amount of neutral fat was measured by absorbance using a neutral fat measurement kit (Stanbio laboratory, TX USA). Since obesity and insulin resistance are representative diseases directly related to the development of non-alcoholic fatty liver, the improvement effect of Compound 70c on fatty liver was analyzed. […] First, the accumulation of fat in the liver, the most representative phenotype, was measured. Briefly, about 50 mg of liver was quantified in cold phosphate buffered saline (PBS) or 0.9% sodium chloride (NaCl) and crushed, followed by treating with mixed solvent of chloroform and methanol (MeOH) in a volume ratio of 2:1 and reacted for 2 hours. […]

db/db mice [4] = assay: Serum insulin by ELISA in obese animal model; format: in vivo; settings: oral 5 mg/kg daily, compared with db/db mouse group
Protocol: The metabolic disease control ability of Compound 32u was analyzed using db/db mice lacking an appetite-regulating hormone leptin receptor as an obese animal model. Compound 32u was orally administered to db/db mice (9 weeks old) at a concentration of 5 mg/kg daily for 4 weeks. Next, the blood insulin concentration was measured using an enzyme-linked immunosorbent assay (ELISA). Mouse insulin ELISA (TMB) kit ([…], Japan) was used, and serum separated from animal blood was added to a 96 well plate coated with insulin primary antibody and after reacting, the secondary antibody and the substrate were added, reacted and the changed color was measured by an absorbance meter. The metabolic disease control ability of Compound 70c was analyzed using db/db mice lacking an appetite-regulating hormone leptin receptor as an obese animal model. Compound 70c was orally administered to db/db mice (9 weeks old) at a concentration of 5 mg/kg daily for 4 weeks. Next, the blood insulin concentration was measured using an enzyme-linked immunosorbent assay (ELISA). Mouse insulin ELISA (TMB) kit ([…], Japan) was used, and serum separated from animal blood was added to a 96 well plate coated with insulin primary antibody and after reacting, the secondary antibody and the substrate were added, reacted and the changed color was measured by an absorbance meter.

Row | Structure (SMILES) | expression of fat oxidation related genes (CPT1 and ACOX1) (CPT1 and ACOX1) | expression of fat synthesis genes (FASN, ACC, SREBP-1a, SREBP-1c and SREBP-2) [1] | fasting blood glucose (db/db mice [2]) | glucose tolerance (blood glucose concentration) (db/db mice [2]) | neutral fat in the liver (db/db mice [3]) | serum insulin concentration (db/db mice [4])
1 | Cl.O=C(Nc1ccccc1-c1cc2ccc(CN3CCNCC3)cc2o1)c1ccc2ccccc2c1 [Compound 32u, N-(2-(6-(Piperazin-1-ylmethyl)benzofuran-2-yl)phenyl)-2-naphthamide hydrochloride] | not significantly different | significantly reduced | reduced | glucose tolerance was restored | reduced neutral fat | reduced
2 | O=C(Nc1ccccc1-c1nc2cc(CN3CCN(C4CCCCC4)CC3)ccc2o1)c1ccc2ccccc2c1 [Compound 70c, N-(2-(5-((4-Cyclohexylpiperazin-1-yl)methyl)benzo[d]oxazol-2-yl)phenyl)-2-naphthamide] | not significantly different | significantly reduced | reduced | glucose tolerance was restored | reduced neutral fat | reduced
